The numbers were not newly measured in patent US10004803B2, “Low, immune enhancing, dose mtor inhibitors and uses thereof” (Novartis AG, priority 2013, dated 2018), which cites them from elsewhere.

The structures appear in SMILES notation.

The conditions of series [1]: cited from earlier work.
Series [2] concerns influenza. Conditions: cited from earlier work.

Turning to `CO[C@H]1C[C@@H]2CC[C@@H](C)[C@@](O)(O2)C(=O)C(=O)N2CCCC[C@H]2C(=O)O[C@H]([C@H](C)C[C@@H]2CC[C@@H](O)[C@H](OC)C2)CC(=O)[C@H](C)/C=C(\C)[C@@H](O)[C@@H](OC)C(=O)[C@H](C)C[C@H](C)/C=C/C=C/C=C/1C` [rapamycin], the lifespan entry in series [1] (mice) was “extend lifespan”. Besides, in series [1] (old mice), the spontaneous physical activity result is recorded as “increases spontaneous physical activity”. Further, the “response to influenza vaccination” value in series [2] (elderly mice, 6 weeks of treatment) is reported as “improved response to influenza vaccination”. Besides, the “serologic response to influenza as compared to placebo” value in series [2] (mice vaccinated against influenza in the presence of rapamycin) is given as “broader serologic response to influenza”.
